How the values were obtained:
speedwell = assay: Test D pre-/postemergence herbicide test; type: in vivo, Veronica persica; settings: Preemergence, scale 0 to 100 (0 no effect, 100 complete control)
In short: (§1)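 Visual ratings from 0 (no effect) to 100 (complete control) were made against untreated controls 7 to 21 days after treatment. Application was both preemergence, on silt loam soil, and postemergence, to 1- to 4-leaf plants 2-18 cm tall; compounds were formulated in a non-phytotoxic surfactant-containing solvent.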

barley, spring = assay: Test D pre-/postemergence herbicide test; type: in vivo, Hordeum vulgare; settings: Preemergence; for Plant response rating, Barley, Spring: scale 0 to 100 (0 no effect, 100 complete control); for Plant response rating: 250 g ai/ha, Barley, Spring, scale 0 to 100
In short: as §1

barley, winter = assay: Test D pre-/postemergence herbicide test; type: in vivo, Hordeum vulgare; settings: Preemergence; for Plant response rating, Barley, Winter: scale 0 to 100 (0 no effect, 100 complete control); for Plant response rating: 250 g ai/ha, Barley, Winter, scale 0 to 100
In short: as §1

crabgrass, Brazil = assay: Test E preemergence herbicide test; type: in vivo, Digitaria horizontalis; design: key: 0 = no effect, 100 = complete control
In short: (§2)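 Seeds were sown in silt loam soil and treated preemergence with test chemicals in a non-phytotoxic solvent mixture containing a surfactant. Plants were kept in a greenhouse for 21 days, then visually rated against untreated controls on a 0–100 scale (0 = no effect, 100 = complete control).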

sandbur = assay: Test E preemergence herbicide test; type: in vivo, Cenchrus echinatus; design: key: 0 = no effect, 100 = complete control
In short: as §2

rice, transplanted = assay: Test F flood (paddy) test; type: in vivo, Oryza sativa cv. Japonica—M202; settings: 21 d, scale 0-100
In short: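 Compounds were applied directly to paddy water held 3 cm above silt loam soil, with rice and weeds at the 2.0–2.5-leaf stage, grown in a greenhouse at 30/27° C under a 16-h photoperiod. Visual ratings (0 no effect to 100 complete control) were made against untreated controls after 21 d.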

O=C1NC[C@H](c2cccc(C(F)(F)F)c2)[C@H]1C(=O)Nc1ccccc1F [Compound 204, (3R,4S)—N-(2-fluorophenyl)-2-oxo-4-[3-(trifluoromethyl)phenyl]-3-pyrrolidinecarboxamide]
Plant response rating, Speedwell (speedwell; 62 g ai/ha): 10 | Plant response rating, Speedwell (speedwell; 125 g ai/ha): 10 | Plant response rating, Speedwell (speedwell; 31 g ai/ha): 0 | Plant response rating, Speedwell (speedwell; 250 g ai/ha): 70 | Plant response rating, Barley, Spring (barley, spring; 62 g ai/ha): 15 | Plant response rating, Barley, Spring (barley, spring; 125 g ai/ha): 20 | Plant response rating, Barley, Spring (barley, spring; 31 g ai/ha): 0 | Plant response rating (barley, spring): 45 | Plant response rating, Barley, Winter (barley, winter; 62 g ai/ha): 20 | Plant response rating, Barley, Winter (barley, winter; 125 g ai/ha): 25 | Plant response rating, Barley, Winter (barley, winter; 31 g ai/ha): 0 | Plant response rating (barley, winter): 35 | Plant response rating, Crabgrass, Brazil (crabgrass, Brazil; 31 g ai/ha): 95 | Plant response rating, Crabgrass, Brazil (crabgrass, Brazil; 62 g ai/ha): 95 | Plant response rating, Crabgrass, Brazil (crabgrass, Brazil; 125 g ai/ha): 98 | Plant response rating, Crabgrass, Brazil (crabgrass, Brazil; 250 g ai/ha): 98 | Plant response rating, Sandbur (sandbur; 31 g ai/ha): 20 | Plant response rating, Sandbur (sandbur; 62 g ai/ha): 50 | Plant response rating, Sandbur (sandbur; 125 g ai/ha): 75 | Plant response rating, Sandbur (sandbur; 250 g ai/ha): 80 | Plant response rating, Rice, Transplanted (rice, transplanted; 125 g ai/ha): 0 | Plant response rating, Rice, Transplanted (rice, transplanted; 250 g ai/ha): 0 | Plant response rating, Rice, Transplanted (rice, transplanted; 500 g ai/ha): 0

O=C1NC[C@H](c2cccc(C(F)(F)F)c2)[C@H]1C(=O)Nc1cccc(F)c1F [Compound 206]
Plant response rating, Speedwell (speedwell; 62 g ai/ha): 25 | Plant response rating, Speedwell (speedwell; 125 g ai/ha): 65 | Plant response rating, Speedwell (speedwell; 31 g ai/ha): 0 | Plant response rating, Speedwell (speedwell; 250 g ai/ha): 90 | Plant response rating, Barley, Spring (barley, spring; 62 g ai/ha): 35 | Plant response rating, Barley, Spring (barley, spring; 125 g ai/ha): 40 | Plant response rating, Barley, Spring (barley, spring; 31 g ai/ha): 5 | Plant response rating (barley, spring): 55 | Plant response rating, Barley, Winter (barley, winter; 62 g ai/ha): 30 | Plant response rating, Barley, Winter (barley, winter; 125 g ai/ha): 40 | Plant response rating, Barley, Winter (barley, winter; 31 g ai/ha): 15 | Plant response rating (barley, winter): 65 | Plant response rating, Crabgrass, Brazil (crabgrass, Brazil; 31 g ai/ha): 80 | Plant response rating, Crabgrass, Brazil (crabgrass, Brazil; 62 g ai/ha): 98 | Plant response rating, Crabgrass, Brazil (crabgrass, Brazil; 125 g ai/ha): 98 | Plant response rating, Crabgrass, Brazil (crabgrass, Brazil; 250 g ai/ha): 98 | Plant response rating, Sandbur (sandbur; 31 g ai/ha): 65 | Plant response rating, Sandbur (sandbur; 62 g ai/ha): 80 | Plant response rating, Sandbur (sandbur; 125 g ai/ha): 95 | Plant response rating, Sandbur (sandbur; 250 g ai/ha): 98 | Plant response rating, Rice, Transplanted (rice, transplanted; 64 g ai/ha): 0 | Plant response rating, Rice, Transplanted (rice, transplanted; 125 g ai/ha): 0 | Plant response rating, Rice, Transplanted (rice, transplanted; 250 g ai/ha): 10 | Plant response rating, Rice, Transplanted (rice, transplanted; 500 g ai/ha): 40

From patent publication US10294202B2, “Pyrrolidinones as herbicides” (FMC Corporation, priority 2013, dated 2019)
